{
  "source": "patent US9643985B2",
  "about": "“PCL compounds, compositions, and methods of use thereof” (The Board Of Trustees Of The University Of Illinois, priority 2013, dated 2017)",
  "key": {"[1]": {"conditions": "rate constant of the competing milieu component with peroxynitrite; cited from earlier work"}, "[2]": {"test": "Yield of D-Luciferin (A385) after treatment with H2O2", "from_the_text": "(§1) The environment inside most cellular compartments is “reducing”—a status heavily dependent on the multiple antioxidant systems that rapidly detoxify oxidants in cells such as thioredoxins and glutathione/glutathione reductase redox systems and catalase. A viable biosensor for an oxidant inside of cells and tissue should detect its target in the presence of these and other ubiquitous milieu components.\n(§2) Data were normalized to bioluminescence obtained from an identical treatment of authentic D-Luciferin (5 μM). […] In all cases, spectral contributions from oxidants were subtracted via a parallel blank experiment containing no PCL-1."}, "[3]": {"test": "Yield of D-Luciferin (A385) after treatment with peroxynitrite (bolus or SIN-1 derived)", "conditions": "for Maximum Yield Luciferin(%): 5 μM PCL-1 in TBS, pH 8.5, 37° C., 90 minutes, A385", "from_the_text": "Where applicable, spectral contributions from oxidants were subtracted via a parallel blank experiment containing no PCL-1.\nas §1, §2"}, "[4]": {"test": "Rate constant of reaction with H2O2", "conditions": "100 mM sodium phosphate, pH 7.4, 37° C. (Table 3)"}, "[5]": {"test": "Rate constant of reaction with peroxynitrite, stopped-flow spectroscopy", "conditions": "100 mM sodium phosphate, pH 7.4, 37° C. (Table 3)"}, "[6]": {"system": "mouse bone marrow-derived macrophages (BMDM)", "test": "Detection of iNOS-derived peroxynitrite in LPS-stimulated macrophages", "assay_type": "cell-based", "experimental": "Bone marrow derived macrophages were prepared using 10% L929 cell (ATCC) supernatant in RPMI medium (Cellgro) made complete with 10% FBS, penicillin, streptomycin, and glutamine (Gibco). Cells were cultured 4-6 days prior to plating for experiments in opaque, white microtiter plates (Falcon) for analysis on a Wallac Victor2 luminometer (PerkinElmer).\nIn order to validate the utility of PCL-1 to detect peroxynitrite in cells, mouse bone marrow-derived macrophages (BMDM) were stimulated with 50 ng/mL bacterial LPS (lipopolysaccharide) for 22 hours, 5 μM PCL-1 was added for an additional 2 hours, then D-Luciferin generated was quantified over the course of 2 hours by addition of […] recombinant luciferase, according to Example 1."}, "C57BL/6 mice irradiated": {"system": "C57BL/6 mice irradiated", "test": "Irradiated mouse model, fecal PCL-1/luciferin marker by LC-MS/MS", "assay_type": "in vivo", "experimental": "(§3) C57BL/6 mice were irradiated at a high lethal dose of 13Gy or at a LD70/30 of 8.1Gy in independent experiments using a Cs^137 source. PCL-1 was administered via oral gavage at 40 or 60 μM/animal, 0.2 mL volume per animal. Fecal samples were collected […] from the irradiated and non-irradiated mice at different time points (pre-dose, 4, 6 and 8 hr post-dose) prior to irradiation and also on days 1, 5 and 7 post-irradiation from all animals. PCL-1 and cleaved PCL-1 (luciferin) levels were measured in the feces using LC-MS/MS method."}, "[7]": {"test": "Safety of PCL-1 in mice, oral gavage", "assay_type": "in vivo", "conditions": "40 to 250 μM per animal via oral gavage"}, "[8]": {"test": "Maximum fecal concentrations after oral administration of PCL-1", "assay_type": "in vivo, mice", "conditions": "up to a 6.25 fold increase in dose", "experimental": "as §3\nAdditionally with up to a 6.25 fold increase in dose a directly proportional fold increase in marker detected was not observed."}, "[9]": {"test": "Reactivity of PCL-1 towards other oxidants"}, "[10]": {"test": "Total bioluminescence after minimal SIN-1 or H2O2 (FIG. 1)", "conditions": "60 minutes at 37° C.", "experimental": "Recombinant luciferase was added to the reaction mixture and bioluminescence was detected at 612 nm for 60 minutes. D-Luciferin (5 μM) was used as a determinant of maximum yield."}},
  "note": "Like-named read-outs stand apart in the source and are kept apart here.",
  "data": [
    {"compound": "N[C@@H](CCC(=O)N[C@@H](CS)C(=O)NCC(=O)O)C(=O)O", "note": "[glutathione]", "values": [
      {"measurement": "kONOO−", "setting": "[1]", "result": 1400, "unit": "M⁻¹ s⁻¹"}
    ]},
    {"compound": "O=C(O)[C@H]1CSC(c2nc3ccc(OCc4ccc(B(O)O)cc4)cc3s2)=N1", "note": "[PCL-1]", "values": [
      {"measurement": "Maximum Yield Luciferin(%)", "setting": "[2]; H2O2 (100 μM) added to 5 μM PCL-1 in TBS, pH 8.5, 37° C., 90 minutes, A385 normalized to authentic D-luciferin", "result": 97, "unit": "%"},
      {"measurement": "yield luciferin", "setting": "[2]; H2O2 as oxidant, with added BSA", "result": "7.38±1.39", "unit": "%"},
      {"measurement": "H2O2-mediated conversion to luciferin", "setting": "[2]; in the presence of GSH, albumin or catalase", "result": "negligible"},
      {"measurement": "conversion to luciferin by H2O2", "setting": "[2]; in vitro, in the absence of GSH, albumin, or catalase", "result": "quantitatively converted to luciferin"},
      {"measurement": "D-luciferin obtained", "setting": "[3]; SIN-1, in the presence of BSA", "result": 45.49, "unit": "%"},
      {"measurement": "effect of GSH, albumin or catalase on peroxynitrite reactivity", "setting": "[3]; at the tested concentrations", "result": "≤ 10", "unit": "%"},
      {"measurement": "Maximum Yield Luciferin(%)", "setting": "[3]; peroxynitrite bolus (10 μM)", "result": 95, "unit": "%"},
      {"measurement": "Maximum Yield Luciferin(%)", "setting": "[3]; peroxynitrite from SIN-1 (100 μM)", "result": 96, "unit": "%"},
      {"measurement": "yield of D-Luciferin", "setting": "[3]; peroxynitrite, in the presence of 66.5 mg/mL BSA (1.0 mM)", "result": "87.5±7.48", "unit": "%"},
      {"measurement": "kH2O2", "setting": "[4]", "result": "1.2 (±0.3) M^−1s^−1"},
      {"measurement": "kONOO−", "setting": "[5]", "result": "9.8 (±0.1) × 10^5 M^−1s^−1"},
      {"measurement": "D-Luciferin signal", "setting": "[6]; BMDMs from iNOS^−/− animals, LPS", "result": "no signal above baseline"},
      {"measurement": "D-Luciferin production over the baseline value", "setting": "[6]; wild-type macrophages, LPS 50 ng/mL, 5 μM PCL-1", "result": "nearly two-fold increase"},
      {"measurement": "increase in PCL-1 and % cleaved PCL-1 levels in the feces", "setting": "C57BL/6 mice irradiated; 8.1Gy irradiation, until day 7", "result": "two-fold or more increase"},
      {"measurement": "increase in the level of the marker in fecal samples vs control", "setting": "C57BL/6 mice irradiated; 13Gy, days 5 to 7, PCL-1 oral gavage", "result": "about 3 fold"},
      {"measurement": "signs of toxicity", "setting": "[7]", "result": "no signs of toxicity were observed"},
      {"measurement": "dose dependence of fecal detection", "setting": "[8]", "result": "not dose dependent"},
      {"measurement": "sensitivity towards NO, superoxide radical anion, HOCl, and singlet oxygen", "setting": "[9]", "result": "insensitive"}
    ]},
    {"compound": "bovine serum albumin: milieu component competing for oxidants", "values": [
      {"measurement": "kONOO−", "setting": "[1]", "result": 8310, "unit": "M⁻¹ s⁻¹"}
    ]},
    {"compound": "O=C(O)[C@H]1CSC(c2nc3ccc(OCc4ccc(B(O)O)c(F)c4)cc3s2)=N1", "note": "[PCL-F, (S)-2-(6-(4-borono-3-fluorobenzyloxy)benzo[d]thiazol-2-yl)-4,5-dihydrothiazole-4-carboxylic acid]", "values": [
      {"measurement": "reactivity with H2O2", "setting": "[2]; 5 μM in TBS, pH 8.5, 37° C., 100 μM H2O2, 90 minutes, compared to PCL-1", "result": "Little reactivity"},
      {"measurement": "glutathione concentration until which reactivity with SIN-1 was retained", "setting": "[3]; 5 μM, 100 μM SIN-1, 90 minutes", "result": "1 to 5", "unit": "mM"},
      {"measurement": "kH2O2", "setting": "[4]", "result": "0.11 (±0.02) M^−1s^−1"},
      {"measurement": "kONOO−", "setting": "[5]", "result": "4.5 (±0.2) × 10^5 M^−1s^−1"},
      {"measurement": "resistance to hydrolysis", "setting": "[10]; 5 μM, bioluminescence at 612 nm", "result": "resistant to hydrolysis in comparison to PCL-1"},
      {"measurement": "selectivity in detecting peroxynitrite vs. hydrogen peroxide", "setting": "[10]; SIN-1 (2.5 μM) or H2O2 (25 μM)", "result": "more selective than PCL-1"}
    ]}
  ]
}
